The record followed here is patent publication US20140080907A1, “LIVER REGENERATION ACCELERATOR COMPRISING BETAINE” (SNU R&DB FOUNDATION, priority 2009, published 2014).

In one data set the test system is resected liver. The experiment in a line: Liver weight increase in the rat after 2/3 partial hepatectomy or sham laparotomy. The format is in vivo, Male Sprague Dawley rats. Here is the method:
Male Sprague Dawley rats were purchased from Central Lab. Animal Inc., Korea. Test animals were adapted to an animal facility where temperature was maintained at 22±2° C., humidity at 55±5%, and artificial illumination was provided for 12 hours a day, at least for a week before being used in the experiment. The rats weighed 230-260 g at the time when partial hepatectomy was performed. Filtered tap water and solid regular rat chow were provided freely. For the animal group that was supposed to be treated with betaine, betaine purchased from Sigma, USA, was dissolved in filtered tap water at the concentration of 1% and provided to the group as drinking water. Betaine was administered after partial hepatectomy was conducted. In some experiments, betaine containing drinking water was provided to the animal group from 2 weeks before partial hepatectomy to increase the effect of betaine. Partial hepatectomy was performed according to the method originally introduced by Higgins and Anderson (Arch Path, 12; 186, 1931). The rat was anesthetized lightly with ether, and then the middle line of abdomen was incised approximately 3 cm. First, the skin was cut and then abdominal muscle was incised carefully not to damage internal organs. The incised upper part was lifted up by using a pincette to cut the connective tissues connected with diaphragm supporting liver tissue using scissors. Light pressure was applied to the surrounding area of the incision line to expose median lobe and left lateral lobe taking about 70 volume % of the total hepatic lobes. Connective tissues of each hepatic lobe were carefully removed and tied with suture to close the blood vessel, followed by elimination of the exposed hepatic lobe. Muscles and skin of the incised area were stitched up with suture. The incised area was sterilized with 70% ethyl alcohol to prevent infection. For the control group, abdominal incision was simply performed and then stitched up (Sham). Male rats were randomly divided into 4 groups of 4 rats each. Group 1, the control group, had laparotomy alone without damaging internal organs and then the opening was sealed (Sham group). Group 2 was treated with betaine after laparotomy (Sham+Betaine group). Group 3 had two-thirds (⅔) partial hepatectomy (PH group), and Group 4 was treated with betaine after ⅔ partial hepatectomy (PH+Betaine group). For the administration of betaine to the groups that had laparotomy only or partial hepatectomy, 1% betaine solution was provided as drinking water. For other groups, filtered tap water was provided as drinking water. In Table 1, the values on day 0 indicate the relative liver weight (liver/weight percentage) in the normal rats not having the surgery. Each group was composed of 4 rats except that 8 rats were used for the calculation for day 0 values. Value is mean±standard deviation. * Statistically significant difference between the group treated with betaine and the group without betaine treatment (Student's t-test, P<0.05). […] SH: Sham, PH: Partial hepatectomy. The number in parenthesis indicates % to the SH group.

Data set [1] can be described thus: Serum hepatotoxic parameters (AST, ALT) in rats after hepatectomy. Conditions: for ALT / AST: serum, end of experiment. It counts as in vivo, Male Sprague Dawley rats. Here is the method:
(§1) Male Sprague Dawley rats were purchased from Central Lab. Animal Inc., Korea. Test animals were adapted to an animal facility where temperature was maintained at 22±2° C., humidity at 55±5%, and artificial illumination was provided for 12 hours a day, at least for a week before being used in the experiment. The rats weighed 230-260 g at the time when partial hepatectomy was performed. Filtered tap water and solid regular rat chow were provided freely. For the animal group that was supposed to be treated with betaine, betaine purchased from Sigma, USA, was dissolved in filtered tap water at the concentration of 1% and provided to the group as drinking water. Betaine was administered after partial hepatectomy was conducted. In some experiments, betaine containing drinking water was provided to the animal group from 2 weeks before partial hepatectomy to increase the effect of betaine.
(§2) Partial hepatectomy was performed according to the method originally introduced by Higgins and Anderson (Arch Path, 12; 186, 1931). The rat was anesthetized lightly with ether, and then the middle line of abdomen was incised approximately 3 cm. First, the skin was cut and then abdominal muscle was incised carefully not to damage internal organs. The incised upper part was lifted up by using a pincette to cut the connective tissues connected with diaphragm supporting liver tissue using scissors. Light pressure was applied to the surrounding area of the incision line to expose median lobe and left lateral lobe taking about 70 volume % of the total hepatic lobes. Connective tissues of each hepatic lobe were carefully removed and tied with suture to close the blood vessel, followed by elimination of the exposed hepatic lobe. Muscles and skin of the incised area were stitched up with suture. The incised area was sterilized with 70% ethyl alcohol to prevent infection. For the control group, abdominal incision was simply performed and then stitched up (Sham).
Alanine aminotransferase (ALT) activity and aspartate aminotransferase (AST) activity were measured by the method of Reitman and Frankel (Amer J Clin Pathol 28; 56, 1957) using spectrophotometer. ALT, AST substrate solutions and an aliquot of serum were added to a test tube, followed by incubation at 37° C. Upon completion of the reaction, the color developing agent and 0.4 N NaOH were added thereto, followed by measurement of absorptivities at 520 nm. The activity of each enzyme was calculated based on the standard calibration curve generated by using pyruvate as a substrate.
Male rats were randomly divided into 4 groups of 4 rats each. Group 1, the control group, had laparotomy alone without damaging internal organs and then the opening was sealed (Sham group). Group 2 was treated with betaine after laparotomy (Sham+Betaine group). Group 3 had two-thirds (⅔) partial hepatectomy (PH group), and Group 4 was treated with betaine after ⅔ partial hepatectomy (PH+Betaine group). For the administration of betaine to the groups that had laparotomy only or partial hepatectomy, 1% betaine solution was provided as drinking water. For other groups, filtered tap water was provided as drinking water.
At the end of the experiment, hepatotoxic parameters in serum were measured.
In Table 2, each group was composed of 4 rats. Value is mean±standard deviation. Statistically significant difference was not shown between different groups (Oneway ANOVA followed by Neuman Keul Multiple range test, P>0.05).

Data set [2] has as its system PCNA (proliferating cell nuclear antigen). As to the kind of experiment: PCNA expression in liver after partial hepatectomy (Western blotting). The conditions noted are these: for PCNA expression, increase compared with tap water group: 1% betaine from 2 weeks before hepatectomy; for PCNA expression compared with tap water group: 1% betaine in drinking water after hepatectomy. The format is in vivo, rat. The procedure: as §1, §2
(§3) Cytosolic fraction was prepared from the excised liver using the standard method. The protein of cytosol was separated by SDS-PAGE, followed by electroblotting, and then transferred to nitrocellulose membrane. The membrane was treated with PBS-T buffer containing 5% nonfat milk at 4° C. for overnight. The nitrocellulose membrane was reacted with the primary antibody diluted with 5% bovine serum albumin. The primary antibodies used herein were mouse monoclonal anti-cyclin D1 serum (Santa Cruz Biotechnology, CA, U.S.A.) and rabbit polyclonal anti-human PCNA (Santa Cruz Biotechnology, CA, U.S.A.). After washing twice with PBS-T, the membrane was treated with the secondary antibody horseradish peroxidase-conjugated goat anti-rabbit IgG (Pierce Biotechnology, Rockford, Ill., U.S.A.). […]

In a further data set the test system is cyclin D1. The experiment in a line: Cyclin D1 expression in liver after partial hepatectomy (Western blotting). The format is in vivo, rat. Here is the method: as §1, §2, §3
For orientation: Immunoblotting shows a protein as a band on a membrane.

[3] abbreviates: 2/3 partial hepatectomy + 1% betaine in drinking water after surgery, day 7.
Setting [4] is: Sham + 1% betaine in drinking water.
The mark [5] stands for this setting: partial hepatectomy + 1% betaine in drinking water.

Marks after values point to notes of the source that are not given here.

For `C[N+](C)(C)CC(=O)[O-]` [Betaine, trimethylglycine], the “relative liver weight (liver/weight percentage)” value with resected liver (2/3 partial hepatectomy + 1% betaine in drinking water after surgery, day 1) is given as 1.47 ± 0.05%; in the data set with resected liver (2/3 partial hepatectomy + 1% betaine in drinking water after surgery, day 2), 1.98 ± 0.05* %; in the data set with resected liver (setting [3]), 3.17 ± 0.06*, a %; in the data set on resected liver (Sham (laparotomy only) + 1% betaine in drinking water, day 7), 3.30 ± 0.10a %; in the data set with resected liver (Sham (laparotomy only) + 1% betaine in drinking water, day 7, listed as betaine), “did not affect the relative liver weight”. For the same compound, the “relative liver weight, % to the SH group” value in the data set with resected liver (setting [3]) is given as “(94%)”; with resected liver (2/3 partial hepatectomy + 1% betaine in drinking water after surgery, day 7, listed as betaine), 94%; with resected liver (Sham + 1% betaine in drinking water, day 7) it was “(98%)”. Also, the “effect on serum AST and ALT activities” value in data set [1] (1% betaine in drinking water, sham or hepatectomized rats) is “did not affect serum AST and ALT activities”. In addition, the ALT is given as 22 ± 2 units/ml in data set [1] (setting [4]) and 27 ± 2 units/ml in data set [1] (setting [5]). In addition, the values for the AST in data set [1] (setting [4]) and in data set [1] (setting [5]) were 83 ± 3 units/ml and 78 ± 11 units/ml, respectively. Moreover, the “PCNA expression, increase compared with tap water group” value in data set [2] (24 hours after hepatectomy (FIG. 1b)) came to 190%; in data set [2] (48 hours after hepatectomy (FIG. 1b)), 150%. Also, the “PCNA expression compared with tap water group” value in data set [2] (24 hours (FIG. 1a)) and in data set [2] (48 hours (FIG. 1a)) was “significantly increased” in each case. Further, the “cyclin D1 expression, higher than tap water group” value in the data set on cyclin D1 (betaine from 2 weeks before hepatectomy, 12th hour after hepatectomy (FIG. 2)) was determined as 50%. The “cyclin D1 expression compared with tap water group” value in the data set on cyclin D1 (betaine from 2 weeks before hepatectomy, 24 hours after hepatectomy (FIG. 2)) is given as “remained elevated”; in the data set with cyclin D1 (betaine from 2 weeks before hepatectomy, 48 hours after hepatectomy (FIG. 2)), “difference between the two groups disappeared”; with cyclin D1 (normal rats without hepatectomy, betaine in drinking water, 0 hour (FIG. 2)) it was “no significant difference”.
